Results as given in patent US4051237A, “Glycopeptide antibiotics Bu-2231 A and B and process for producing same” (priority 1975, dated 1977).

Key:
C. neoformans IAM 4514 = experiment: MIC by two-fold agar dilution; type: cell-based; conditions: Cn-2 C. neoformans IAM 4514; sabouraud agar; unit assumed
C. krusei #96 A15052 = experiment: MIC by two-fold agar dilution; type: cell-based; conditions: Ck-2 C. krusei #96 A15052; sabouraud agar; unit assumed
P. rettgeri A15167 = experiment: MIC by two-fold agar dilution; type: cell-based; conditions: Mueller-Hinton agar, unit assumed
E. coli K-12 A9632 = experiment: MIC by two-fold agar dilution; type: cell-based; conditions: Mueller-Hinton agar, unit assumed
S. aureus #193 = experiment: MIC by two-fold agar dilution; type: cell-based; conditions: Mueller-Hinton agar, unit assumed
S. cerevisiae IAM 4009 = experiment: MIC by two-fold agar dilution; type: cell-based; conditions: Sc-2 S. cerevisiae IAM 4009; sabouraud agar; unit assumed
K. pneumoniae A20328 = experiment: MIC by two-fold agar dilution; type: cell-based; conditions: Mueller-Hinton agar, unit assumed
C. krusei IAM 4489 = experiment: MIC by two-fold agar dilution; type: cell-based; conditions: Ck-1 C. krusei IAM 4489; sabouraud agar; unit assumed
S. cerevisiae ATCC 9763 = experiment: MIC by two-fold agar dilution; type: cell-based; conditions: Sc-1 S. cerevisiae ATCC 9763; sabouraud agar; unit assumed
P. aeruginosa A 9923 = experiment: MIC by two-fold agar dilution; type: cell-based; conditions: Mueller-Hinton agar, unit assumed
Sporotrichum sp. = experiment: MIC by two-fold agar dilution; type: cell-based; conditions: Sy-1 Sporotrichum sp.; sabouraud agar; unit assumed
C. albicans IAM 4888 = experiment: MIC by two-fold agar dilution; type: cell-based; conditions: Ca-1 C. albicans IAM 4888; sabouraud agar; unit assumed
E. coli A20732 = experiment: MIC by two-fold agar dilution; type: cell-based; conditions: Mueller-Hinton agar, unit assumed
P. aeruginosa A9930 = experiment: MIC by two-fold agar dilution; type: cell-based; conditions: Mueller-Hinton agar, unit assumed
Mycobacterium 607, D47 = experiment: MIC by two-fold agar dilution; type: cell-based; conditions: Medium #1001, unit assumed
K. pneumoniae A20680 = experiment: MIC by two-fold agar dilution; type: cell-based; conditions: Mueller-Hinton agar, unit assumed
C. lunata ATCC 13432 = experiment: MIC by two-fold agar dilution; type: cell-based; conditions: Cl-1 C. lunata ATCC 13432; sabouraud agar; unit assumed
B. sphaericus #122 = experiment: MIC by two-fold agar dilution; type: cell-based; conditions: Mueller-Hinton agar, unit assumed
S. aureus BX-1633,A9606 = experiment: MIC by two-fold agar dilution; type: cell-based; conditions: Mueller-Hinton agar, unit assumed
A. fumigatus IAM 2530 = experiment: MIC by two-fold agar dilution; type: cell-based; conditions: Af-1 A. fumigatus IAM 2530; sabouraud agar; unit assumed
M. flavus D12 = experiment: MIC by two-fold agar dilution; type: cell-based; conditions: Mueller-Hinton agar, unit assumed
T. asteroides = experiment: MIC by two-fold agar dilution; type: cell-based; conditions: Ta-1 T. asteroides; sabouraud agar; unit assumed
B. subtilis PCI-219 = experiment: MIC by two-fold agar dilution; type: cell-based; conditions: Mueller-Hinton agar, unit assumed
A. niger var Tieghem = experiment: MIC by two-fold agar dilution; type: cell-based; conditions: An-1 A. niger var Tieghem; sabouraud agar; unit assumed
B. mycoides "0" = type: cell-based; conditions: Mueller-Hinton agar, unit assumed
E. coli A20665 = experiment: MIC by two-fold agar dilution; type: cell-based; conditions: Mueller-Hinton agar, unit assumed
M. canis D-51 = experiment: MIC by two-fold agar dilution; type: cell-based; conditions: Mc-1 M. canis D-51; sabouraud agar; unit assumed
T. mentagrophytes D-155 = experiment: MIC by two-fold agar dilution; type: cell-based; conditions: Tm-1 T. mentagrophytes D-155; sabouraud agar; unit assumed
P. vulgaris A9436 = experiment: MIC by two-fold agar dilution; type: cell-based; conditions: Mueller-Hinton agar, unit assumed
[1] = tested on: F. moniliforme NRRL A2284; experiment: MIC by two-fold agar dilution; type: cell-based; conditions: Fm-1 F. moniliforme NRRL A2284; sabouraud agar; unit assumed
Hormodendrum sp. = experiment: MIC by two-fold agar dilution; type: cell-based; conditions: Hy-1 Hormodendrum sp.; sabouraud agar; unit assumed
T. rubrum D-55 = experiment: MIC by two-fold agar dilution; type: cell-based; conditions: Tr-1 T. rubrum D-55; sabouraud agar; unit assumed
E. coli NIHJ [2] = experiment: MIC by two-fold agar dilution; type: cell-based; conditions: Mueller-Hinton agar, unit assumed
Mycobacterium 607, D87 = experiment: MIC by two-fold agar dilution; type: cell-based; conditions: Medium #1001, unit assumed
S. marcescens A20333 = experiment: MIC by two-fold agar dilution; type: cell-based; conditions: Mueller-Hinton agar, unit assumed
S. marcescens A21235 = experiment: MIC by two-fold agar dilution; type: cell-based; conditions: Mueller-Hinton agar, unit assumed
E. coli NIHJ [3] = experiment: In vivo activity in experimental mice infection; conditions: Table 11 second part
Protocol: The in vivo activity of Bu-2231 complex was evaluated in experimental mice infections against S. aureus Smith and E. coli NIHJ. Bleomycin was tested comparatively as a reference antibiotic.
The in vivo activty of the individual components of Bu-2231 in each of the copper-free and copper complex forms was also determined in E. coli infection.

Substance Phleomycin [reference compound] has an MIC (C. neoformans IAM 4514) of 0.4 µg/mL, an MIC (C. krusei #96 A15052) of 0.8 µg/mL and an MIC (P. rettgeri A15167) of 3.1 µg/mL. It also gave an MIC (E. coli K-12 A9632) of 1.6 µg/mL, an MIC (S. aureus #193) of 0.2 µg/mL and an MIC (S. cerevisiae IAM 4009) of 0.8 µg/mL. The MIC (K. pneumoniae A20328) was > 100 µg/mL, the MIC (C. krusei IAM 4489) was 0.8 µg/mL and the MIC (S. cerevisiae ATCC 9763) was 0.8 µg/mL. For the same substance, the MIC (P. aeruginosa A 9923) was > 100 µg/mL, the MIC (Sporotrichum sp.) was 12.5 µg/mL and the MIC (C. albicans IAM 4888) was 3.1 µg/mL. For the same substance, the MIC (E. coli A20732) was 1.6 µg/mL, the MIC (P. aeruginosa A9930) was 3.1 µg/mL and the MIC (Mycobacterium 607, D47) was 0.2 µg/mL. For the same substance, the MIC (K. pneumoniae A20680) was > 100 µg/mL, the MIC (C. lunata ATCC 13432) was 0.4 µg/mL and the MIC (B. sphaericus #122) was 0.4 µg/mL. It also gave an MIC (S. aureus BX-1633,A9606) of 0.4 µg/mL, an MIC (A. fumigatus IAM 2530) of 0.8 µg/mL and an MIC (M. flavus D12) of 0.2 µg/mL. For the same substance, the MIC (T. asteroides) was 6.3 µg/mL, the MIC (B. subtilis PCI-219) was < 0.0063 µg/mL and the MIC (A. niger var Tieghem) was 0.4 µg/mL. The MIC (B. mycoides "0") was 0.2 µg/mL, the MIC (E. coli A20665) was 0.4 µg/mL and the MIC (M. canis D-51) was 6.3 µg/mL. The MIC (T. mentagrophytes D-155) was 12.5 µg/mL, the MIC (P. vulgaris A9436) was 0.8 µg/mL and the MIC [1] was 12.5 µg/mL. For the same substance, the MIC (Hormodendrum sp.) was 0.8 µg/mL, the MIC (T. rubrum D-55) was 3.1 µg/mL and the MIC (E. coli NIHJ [2]) was 0.8 µg/mL. The MIC (Mycobacterium 607, D87) was 0.4 µg/mL, the MIC (S. marcescens A20333) was 0.8 µg/mL and the MIC (S. marcescens A21235) was 0.8 µg/mL.

Bleomycin [reference compound] was tested, and the MIC (C. neoformans IAM 4514) was 1.6 µg/mL, the MIC (C. krusei #96 A15052) was 3.1 µg/mL and the MIC (P. rettgeri A15167) was > 100 µg/mL. For the same substance, the MIC (E. coli K-12 A9632) was 0.8 µg/mL, the MIC (S. aureus #193) was 12.5 µg/mL and the MIC (S. cerevisiae IAM 4009) was 0.4 µg/mL. For the same substance, the MIC (K. pneumoniae A20328) was 25 µg/mL, the MIC (C. krusei IAM 4489) was 12.5 µg/mL and the MIC (S. cerevisiae ATCC 9763) was 0.8 µg/mL. For the same substance, the “PD50 (median protective dose)” value (E. coli NIHJ [3]; E. coli NIHJ infection, mice, sc) was 2.55 mg/kg, the “In vivo activity, E. coli NIHJ infection (x/5 mice)” value (“In vivo activity” below) (E. coli NIHJ [3]; dose (sc) 0.13 mg/kg) was 0/5 and the “In vivo activity” value (E. coli NIHJ [3]; dose (sc) 0.5 mg/kg) was 1/5. The “In vivo activity” value (E. coli NIHJ [3]; dose (sc) 2 mg/kg) was 1/5, the “In vivo activity” value (E. coli NIHJ [3]; dose (sc) 8 mg/kg) was 5/5 and the MIC (P. aeruginosa A 9923) was > 100 µg/mL. For the same substance, the MIC (Sporotrichum sp.) was > 100 µg/mL, the MIC (C. albicans IAM 4888) was 12.5 µg/mL and the MIC (E. coli A20732) was 1.6 µg/mL. The MIC (P. aeruginosa A9930) was > 100 µg/mL, the MIC (Mycobacterium 607, D47) was 0.4 µg/mL and the MIC (K. pneumoniae A20680) was > 100 µg/mL. The MIC (C. lunata ATCC 13432) was 0.1 µg/mL, the MIC (B. sphaericus #122) was 6.3 µg/mL and the MIC (S. aureus BX-1633,A9606) was 6.3 µg/mL. For the same substance, the MIC (A. fumigatus IAM 2530) was 0.8 µg/mL, the MIC (M. flavus D12) was 50 µg/mL and the MIC (T. asteroides) was > 100 µg/mL. For the same substance, the MIC (B. subtilis PCI-219) was < 0.0063 µg/mL, the MIC (A. niger var Tieghem) was 0.4 µg/mL and the MIC (B. mycoides "0") was 12.5 µg/mL. The MIC (E. coli A20665) was 0.2 µg/mL, the MIC (M. canis D-51) was > 100 µg/mL and the MIC (T. mentagrophytes D-155) was > 100 µg/mL. The MIC (P. vulgaris A9436) was 6.3 µg/mL, the MIC [1] was > 100 µg/mL and the MIC (Hormodendrum sp.) was 0.8 µg/mL. The MIC (T. rubrum D-55) was > 100 µg/mL, the MIC (E. coli NIHJ [2]) was 0.8 µg/mL and the MIC (Mycobacterium 607, D87) was 0.8 µg/mL. For the same substance, the MIC (S. marcescens A20333) was > 100 µg/mL and the MIC (S. marcescens A21235) was 100 µg/mL.
